{
  "source": "patent US20250382346A1",
  "about": "“NEURONAL PROMOTERS AND USES THEREOF” (priority 2023, published 2025)",
  "target": "T1, rM3Ds (Rattus norvegicus, UniProt P08483, A177S/A238G/A489L/DEL261-437/DEL441-478/E258S/I253V/I483M/INS256[…]/K178L/K182A/K255R/K484R/K486H/L173F/L482A/M480V/R171S/R176Q/R179M/S481M/T174R/T181R/T257A/Y148C)",
  "T1 sequence (P08483 with tags, fused parts or gaps Y148C/R171S/L173F/T174R/R176Q/A177S/K178L/R179M/T181R/K182A/A238G/I253V/K255R/INS256[…]/T257A/E258S/DEL261-437/DEL441-478/M480V/S481M/L482A/I483M/K484R/K486H/A489L)": "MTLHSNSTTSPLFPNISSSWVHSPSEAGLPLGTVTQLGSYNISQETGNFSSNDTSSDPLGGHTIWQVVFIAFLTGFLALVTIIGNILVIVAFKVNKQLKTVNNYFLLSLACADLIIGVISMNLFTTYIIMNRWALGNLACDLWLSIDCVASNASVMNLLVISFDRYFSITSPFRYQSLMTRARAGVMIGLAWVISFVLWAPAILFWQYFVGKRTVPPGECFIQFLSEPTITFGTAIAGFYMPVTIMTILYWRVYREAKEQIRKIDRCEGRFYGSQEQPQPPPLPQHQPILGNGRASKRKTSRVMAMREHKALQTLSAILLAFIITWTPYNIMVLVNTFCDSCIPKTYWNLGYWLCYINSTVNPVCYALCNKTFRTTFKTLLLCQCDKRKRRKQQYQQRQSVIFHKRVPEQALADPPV",
  "assay": "6-OHDA parkinsonian mouse model: open field and rotarod",
  "type": "in vivo",
  "parameters": "2A-EYFP (C); expressed in transfected cells; host or cells: neurons (striatal D1-MSNs) of mice or cynomolgus macaques, transduced in vivo by nigral AAV8R12-G88P7-rM3Ds-2A-EYFP",
  "settings": "AAV8R12-G88P7-rM3Ds-2A-EYFP, 6-OHDA mice",
  "method": "Rodent Parkinson's disease mice models were created through bilateral injection of 6-OHDA using the same methods as described in virus injections (Example 3). A total volume of 1 ul 6-OHDA (5 mg/ml, dissolved in sterile saline containing 0.02% ascorbic acid, Sigma) was injected into the striatum at a speed of 100 nL/min. The coordinates for striatum were 0.5 mm anterior, 1.5 mm lateral, 3.2 mm ventral to the bregma. A premedication of desipramine (25 mg/kg, Sigma) was administered to animals prior to injections of 6-OHDA, in order to increase the selectivity and efficacy of 6-OHDA-induced lesions. Mice were supplemented with DietGel (ClearH2O) for one-week post-surgery. All staining and behavioral experiments were performed at least 14 days following surgery, when the amount of dopamine depletion was maximal and stable.\nTo investigate the efficacy and safety of D1-MSN specific neuromodulation strategy, AAV8R12-G88P7-rM3Ds-2A-EYFP was injected into the SNr of adult C57/BL6 mice. 6-OHDA was administered bilaterally into the striatum (FIG. 13A). […]\nMice were individually handled for 10-20 seconds per day for at least 5 days to habituate them to the experimenter. […] The behavioral data were analyzed with ANY-maze software (Stoelting Co.).\nMice were individually handled as described in the open field test. […] Latency to fall for each trial was automatically recorded by the apparatus. […]",
  "data": [
    {"smiles": "C[N+]1([O-])CCN(C2=Nc3cc(Cl)ccc3Nc3ccccc32)CC1", "note": "[CNO, Clozapine-N-oxide]", "values": [
      {"measurement": "motor skill, rotarod test", "setting": "CNO", "value": "partially rescued the motor skill deficit"},
      {"measurement": "spontaneous movement in an open field", "setting": "systemic CNO", "value": "drastically reversed the dyskinesia-like phenotype of PD mice"}
    ]}
  ]
}
